Structures can show the parent of a compound that is named as a salt.

The target of the test is T1, human clotting factor VIIa (Homo sapiens, UniProt P08709).
T1 construct: a human clotting factor VIIa (hereinafter, “Factor VIIa”) purified sample; purchased Enzyme Research Laboratories HFVIIa
Briefly: Inhibitory activity against clotting factor VIIa (chromogenic substrate Spectrozyme FVIIa, TF/Factor VIIa enzyme solution). It counts as biochemical. The conditions noted are these: human Factor VIIa 5 nmol/L with human TF 10 nmol/L, room temperature 40 minutes, 405 nm. A digest of the protocol:
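Human Factor VIIa (5 nmol/L) with human TF (10 nmol/L) in Tris-BSA buffer pH 7.4 containing 15 mmol/L CaCl2 and cephalin, with Spectrozyme FVIIa substrate. Reaction 40 min at room temperature; 4-nitroanilide read at 405 nm. IC50 by non-linear regression over 100 μmol/L–0.1 nmol/L.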

T1 sequence (P08709 213-466 limits assumed): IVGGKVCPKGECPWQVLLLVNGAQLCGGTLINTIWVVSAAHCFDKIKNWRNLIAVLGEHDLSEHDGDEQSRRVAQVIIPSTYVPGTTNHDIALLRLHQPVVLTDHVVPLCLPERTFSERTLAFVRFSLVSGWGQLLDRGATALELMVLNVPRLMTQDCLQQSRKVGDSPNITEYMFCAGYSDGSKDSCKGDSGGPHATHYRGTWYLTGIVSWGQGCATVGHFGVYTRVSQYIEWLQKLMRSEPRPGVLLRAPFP
T1 sequence (P08709 61-212 limits assumed): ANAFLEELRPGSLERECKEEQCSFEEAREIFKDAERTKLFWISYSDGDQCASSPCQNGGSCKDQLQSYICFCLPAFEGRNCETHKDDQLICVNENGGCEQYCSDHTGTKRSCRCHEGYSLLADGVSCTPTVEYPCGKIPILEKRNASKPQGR
T1 sequence (P13726 33-295 partner): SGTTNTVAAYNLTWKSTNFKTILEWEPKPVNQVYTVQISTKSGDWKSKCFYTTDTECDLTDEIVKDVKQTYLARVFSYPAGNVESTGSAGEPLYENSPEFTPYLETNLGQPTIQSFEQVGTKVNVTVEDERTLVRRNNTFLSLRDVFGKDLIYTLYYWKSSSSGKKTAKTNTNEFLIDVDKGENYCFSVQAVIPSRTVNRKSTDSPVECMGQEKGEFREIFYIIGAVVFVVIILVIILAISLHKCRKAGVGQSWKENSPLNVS

What is called IC50 is the concentration that gives 50% inhibition. In turn, `CCc1cc(OCC(=O)N(C)C)c(F)c(C(Nc2ccc(C(=N)N)cc2)c2nn(-c3ccccc3NC(=O)OC)c(=O)[nH]2)c1` (stereo not drawn) [Example 135, (2-{3-[(4-carbamimidoylphenylamino)-(3-dimethylcarbamoylmethoxy-5-ethyl-2-fluorophenyl)methyl]-5-oxo-4,5-dihydro-1H-[1,2,4]triazol-1-yl}phenyl)carbamic acid methyl ester trifluoroacetate] showed a 50% inhibitory concentration (IC50) of 8.6 nM.

`COc1cc(F)c(C(Nc2ccc(C(=N)N)cc2)c2nn(-c3ncccc3N)c(=O)[nH]2)cc1OC` (stereo not drawn) [Example 138, 4-({[1-(3-aminopyridin-2-yl)-5-oxo-4,5-dihydro-1H-[1,2,4]triazol-3-yl]-(2-fluoro-4,5-dimethoxyphenyl)methyl}amino)benzamidine trifluoroacetate] gave an IC50 of 17 nM.

Turning to `CCc1cc(OCCN(C)C)c(F)c(C(Nc2ccc(C(=N)N)cc2)c2nn(-c3ccccc3N)c(=O)[nH]2)c1` (stereo not drawn) [Example 139, 4-({[1-(2-aminophenyl)-5-oxo-4,5-dihydro-1H-[1,2,4]triazol-3-yl]-[3-(2-dimethylaminoethoxy)-5-ethyl-2-fluorophenyl]methyl}amino)benzamidine bistrifluoroacetate], the IC50 was 3.8 nM.

Compound `CCc1cc(OCCN(C)C)c(F)c(C(Nc2ccc(C(=N)N)cc2)c2nn(-c3ccccn3)c(=O)[nH]2)c1` (stereo not drawn) [Example 140, 4-({[3-(2-dimethylaminoethoxy)-5-ethyl-2-fluorophenyl]-(5-oxo-1-pyridin-2-yl-4,5-dihydro-1H-[1,2,4]triazol-3-yl)methyl}amino)benzamidine bistrifluoroacetate] showed an IC50 of 5.3 nM.

For `CCc1cc(OC(C)CN(C)C)c(F)c(C(Nc2ccc(C(=N)N)cc2)c2nn(-c3ccccn3)c(=O)[nH]2)c1` (stereo not drawn) [Example 141, 4-({[3-(2-dimethylamino-1-methylethoxy)-5-ethyl-2-fluorophenyl]-(5-oxo-1-pyridin-2-yl-4,5-dihydro-1H-[1,2,4]triazol-3-yl)methyl}amino)benzamidine bistrifluoroacetate], the IC50 came out at 5 nM.

Compound `CCc1cc(OCC(C)(C)CN(C)C)c(F)c(C(Nc2ccc(C(=N)N)cc2)c2nn(-c3ccccc3C(=O)O)c(=O)[nH]2)c1` (stereo not drawn) [Example 142, 2-(3{(4-carbamimidoyl-phenylamino)-[3-(3-dimethylamino-2,2-dimethylpropoxy)-5-ethyl-2-fluorophenyl]methyl}-5-oxo-4,5-dihydro-1H-[1,2,4]triazol-1-yl}benzoic acid bistrifluoroacetate] showed an IC50 of 4.7 nM. This IC50 and that of the compound before are within 1.5-fold of each other.

`COc1cc(C(Nc2ccc(C(=N)N)cc2)c2nn(-c3cccnn3)c(=O)[nH]2)cc2c1OCCCO2` (stereo not drawn) [Example 147, 4-{[(9-methoxy-3,4-dihydro-2H-benzo[b][1,4]dioxepin-7-yl)-(5-oxo-1-pyridazin-3-yl-4,5-dihydro-1H-[1,2,4]triazol-3-yl)methyl]amino}benzamidine acetate] came in with a half-inhibitory concentration (IC50) of 5.1 nM.

Take `COc1cc(F)c(C(Nc2ccc(C(=N)N)cc2)c2nn(-c3[nH]ncc3C(=O)O)c(=O)[nH]2)cc1OC` (stereo not drawn) [Example 157, 5-{3-[(4-carbamimidoylphenylamino)-(2-fluoro-4,5-dimethoxyphenyl)methyl]-5-oxo-4,5-dihydro-[1,2,4]triazol-1-yl}-1H-pyrazole-4-carboxylic acid]: the midpoint of inhibition, the IC50, lay at 59.4 nM.

Turning to `CCOC(=O)c1cn[nH]c1-n1nc(C(Nc2ccc(C(=N)N)cc2)c2cc(OC)c(OC)cc2F)[nH]c1=O` (stereo not drawn) [Example 157d, 5-{3-[(4-carbamimidoylphenylamino)-(2-fluoro-4,5-dimethoxyphenyl)methyl]-5-oxo-4,5-dihydro-[1,2,4]triazol-1-yl}-1H-pyrazole-4-carboxylic acid ethyl ester], half-maximal inhibition (IC50) required 6.9 nM.

`CCOC(=O)c1cn[nH]c1-n1nc(C(Nc2ccc(C(=N)N)cc2)c2cc(OC)c3c(c2F)OCCO3)[nH]c1=O` (stereo not drawn) [Example 175, 5-{3-[(4-carbamimidoylphenylamino)-(5-fluoro-8-methoxy-2,3-dihydrobenzo[1,4]dioxin-6-yl)methyl]-5-oxo-4,5-dihydro-[1,2,4]triazol-1-yl}-1H-pyrazole-4-carboxylic acid ethyl ester acetate] displayed a half-inhibitory concentration (IC50) of 6.5 nM.

With `COc1cc(OCCCO)c(F)c(C(Nc2ccc(C(=N)N)cc2)c2nn(-c3[nH]ncc3C(=O)O)c(=O)[nH]2)c1` (stereo not drawn) [Example 177, 5-(3-{(4-carbamimidoylphenylamino)-[2-fluoro-3-(3-hydroxypropoxy)-5-methoxyphenyl]methyl}-5-oxo-4,5-dihydro-[1,2,4]triazol-1-yl)-1H-pyrazole-4-carboxylic acid acetate], it took 27.6 nM to reach half-maximal inhibition (IC50). This IC50 lies about 4.2-fold higher than the previous one.

Compound `COc1cc(OCCO)c(F)c(C(Nc2ccc(C(=N)N)cc2)c2nn(-c3ncccn3)c(=O)[nH]2)c1` (stereo not drawn) [Example 181, 4-({[2-fluoro-3-(2-hydroxyethoxy)-5-methoxyphenyl]-(5-oxo-1-pyrimidin-2-yl-4,5-dihydro-1H-[1,2,4]triazol-3-yl)methyl}amino)benzamidine acetate] had an IC50 of 9.3 nM.

Turning to `COc1cc(OCCO)c(F)c(C(Nc2ccc(C(=N)N)cc2)c2nn(-c3ncsc3C(=O)O)c(=O)[nH]2)c1` (stereo not drawn) [Example 182, 4-(3-{(4-carbamimidoylphenylamino)-[2-fluoro-3-(2-hydroxyethoxy)-5-methoxyphenyl]methyl}-5-oxo-4,5-dihydro[1,2,4]triazol-1-yl)thiazole-5-carboxylic acid trifluoroacetate], the IC50 is 41.7 nM.

The compound `COc1cc(C(Nc2ccc(C(=N)N)cc2)c2nn(-c3[nH]ncc3C(=O)O)c(=O)[nH]2)c(F)c2c1OCCC2` (stereo not drawn) [Example 189, 5-{3-[(4-Carbamimidoylphenylamino)-(5-fluoro-8-methoxychroman-6-yl)methyl]-5-oxo-4,5-dihydro-[1,2,4]triazol-1-yl}-1H-pyrazole-4-carboxylic acid] displayed an IC50 of 32.2 nM.

For `CCOC(=O)c1cn[nH]c1-n1nc(C(Nc2ccc(C(=N)N)cc2)c2cc(OC)c3c(c2F)OCCCO3)[nH]c1=O` (stereo not drawn) [Example 192, 5-{3-[(4-Carbamimidoylphenylamino)-(6-fluoro-9-methoxy-3,4-dihydro-2H-benzo[b][1,4]dioxepin-7-yl)methyl]-5-oxo-4,5-dihydro-[1,2,4]triazol-1-yl}-1H-pyrazole-4-carboxylic acid ethyl ester acetate], 5.4 nM corresponded to half-maximal inhibition (IC50).

With `COc1cc(C(Nc2ccc(C(=N)N)cc2)c2nn(-c3[nH]ncc3C(=O)O)c(=O)[nH]2)c(F)c2c1OCCCO2` (stereo not drawn) [Example 196, 5-{3-[(4-Carbamimidoylphenylamino)-(6-fluoro-9-methoxy-3,4-dihydro-2H-benzo[b][1,4]dioxepin-7-yl)methyl]-5-oxo-4,5-dihydro-[1,2,4]triazol-1-yl}-1H-pyrazole-4-carboxylic acid acetate], the IC50 stood at 17.8 nM.

Compound `CCOC(=O)c1cn[nH]c1-n1nc(C(Nc2ccc(C(=N)N)cc2)c2cc(OC)c3c(c2F)OCCO3)[nH]c1=O` (stereo not drawn) [Example 197, 5-{3-[(4-Carbamimidoylphenylamino)-(5-fluoro-8-methoxy-2,3-dihydrobenzo[1,4]dioxin-6-yl)methyl]-5-oxo-4,5-dihydro-[1,2,4]triazol-1-yl}-1H-pyrazole-4-carboxylic acid ethyl ester trifluoroacetate] gave an IC50 of 7.8 nM. Against the preceding compound, the IC50 is about 2.3-fold lower.

On to `COc1cc(OCCO)c(F)c(C(Nc2ccc(C(=N)N)cc2)c2nn(-c3ncccc3N)c(=O)[nH]2)c1` (stereo not drawn) [Example 200, 4-({[1-(3-Aminopyridin-2-yl)-5-oxo-4,5-dihydro-1H-[1,2,4]triazol-3-yl]-[2-fluoro-3-(2-hydroxyethoxy)-5-methoxyphenyl]methyl}amino)benzamidine], for which the IC50 amounted to 11.3 nM.

Turning to `COCCOc1cc(OC)cc(C(Nc2ccc(C(=N)N)cc2)c2nn(-c3ncccc3N)c(=O)[nH]2)c1F` (stereo not drawn) [Example 202, 4-({[1-(3-Aminopyridin-2-yl)-5-oxo-4,5-dihydro-1H-[1,2,4]triazol-3-yl]-[2-fluoro-5-methoxy-3-(2-methoxyethoxy)phenyl]methyl}amino)benzamidine acetate], the IC50 came to 12 nM.

For `CCc1cc(OCCCO)c(F)c(C(Nc2ccc(C(=N)N)cc2)c2nn(-c3ncccc3N)c(=O)[nH]2)c1` (stereo not drawn) [Example 204, 4-({[1-(3-Aminopyridin-2-yl)-5-oxo-4,5-dihydro-1H-[1,2,4]triazol-3-yl]-[5-ethyl-2-fluoro-3-(3-hydroxypropoxy)phenyl]methyl}amino)benzamidine acetate], 2.7 nM corresponded to half-maximal inhibition (IC50).

Regarding `COc1cc(OCCO)cc(C(Nc2ccc(C(=N)N)cc2)c2nn(-c3ncccc3N)c(=O)[nH]2)c1` (stereo not drawn) [Example 207, 4-({[1-(3-Aminopyridin-2-yl)-5-oxo-4,5-dihydro-1H-[1,2,4]triazol-3-yl]-[3-(2-hydroxyethoxy)-5-methoxyphenyl]methyl}amino)benzamidine acetate], the IC50 was 19.9 nM. Against the preceding compound, the IC50 is about 7.4-fold higher.

Compound `COc1cc(C(Nc2ccc(C(=N)N)cc2)c2nn(-c3ncccc3N)c(=O)[nH]2)c(F)c2c1OCCC2` (stereo not drawn) [Example 209, 4-{[[1-(3-Aminopyridin-2-yl)-5-oxo-4,5-dihydro-1H-[1,2,4]triazol-3-yl]-(5-fluoro-8-methoxychroman-6-yl)methyl]amino}benzamidine trifluoroacetate] returned an IC50 of 4 nM.

For `COc1cc(OC)c(F)c(C(Nc2ccc(C(=N)N)cc2)c2nn(-c3cccc(C(=O)O)n3)c(=O)[nH]2)c1` (stereo not drawn) [Example 210, 6-{3-[(4-Carbamimidoylphenylamino)-(2-fluoro-3,5-dimethoxyphenyl)methyl]-5-oxo-4,5-dihydro-[1,2,4]triazol-1-yl}pyridine-2-carboxylic acid trifluoroacetate], half-maximal inhibition (IC50) was put at 39.1 nM.

In turn, `COc1cc(O)c(F)c(C(Nc2ccc(C(=N)N)cc2)c2nn(-c3ncccn3)c(=O)[nH]2)c1` (stereo not drawn) [Example 224, 4-{[(2-Fluoro-3-hydroxy-5-methoxyphenyl)-(5-oxo-1-pyrimidin-2-yl-4,5-dihydro-1H-[1,2,4]triazol-3-yl)methyl]amino}benzamidine acetate] displayed an IC50 of 48.8 nM.
